The results in this text go back to patent US20170021056A1, “PEPTIDE AMPHIPHILE BIOMATERIALS FOR NERVE REPAIR” (Northwestern University, priority 2015, published 2017).

The test system of experiment [1] is Schwann cells (cell line RT4-D6P2T). Nature of the experiment: WST-1 proliferation assay of Schwann cells in PA or collagen gels. Particulars: for Schwann cell proliferation compared to backbone-PA gel: by 7 days of culture; for Schwann cell proliferation (viability measurements) compared to backbone-PA gel: day 1 of culture. It counts as cell-based, rat. The protocol:
(§1) Cells were purchased from ATCC (cell line RT4-D6P2T) and cultured in Dulbecco's Modified Eagle's Medium (DMEM) with 10% fetal bovine serum (FBS). Cells were cultured to confluence, treated with 0.25% trypsin, centrifuged, and resuspended in PBS for a final concentration of 3500 cells/ml for WST-1 proliferation assays and 10,000 cells/ml for immunocytochemistry (ICC).
In order to synthesize the backbone-PA (consisting of only palmitoyl-VVAAEENH2) (SEQ ID NO: 3), the molecule was dissolved in aqueous 150 mM NaCl, 3 mM KCl, and NaOH solution to obtain a final 1 wt % solution at a pH between 7.2 and 7.4. In order to fabricate mixtures containing epitope-bearing PAs IKVAV (SEQ ID NO: 2) and RGDS (SEQ ID NO: 1) (consisting of palmitoyl-VVAAEE-NH2(SEQ ID NO: 3) with appended peptides, either RGDS (Arg-Gly-Asp-Ser) (SEQ ID NO: 1) or IKVAV (Ile-Lys-Val-Ala-Val) (SEQ ID NO: 2)), the backbone-PA was dissolved in aqueous 150 mM NaCl, 3 mM KCl, and NaOH solution to obtain a 1.33 wt % solution at a pH between 7.2 and 7.4. The epitope-containing PA was then dissolved with the same solution to obtain a 1 wt % solution at a pH between 7.2 and 7.4. The 1.33 wt % PA solution was then mixed in a 3:1 ratio with the 1% bioactive epitope solution creating a final bioactive PA solution of 1 wt % PA and 0.25 wt % bioactive epitope. The three resulting solutions (backbone-PA, RGDS-PA (SEQ ID NO: 1), and IKVAV-PA (SEQ ID NO: 2)) were then heated to 80° C. for 30 min in a water bath and left in the bath for slowcooling to 37° C. overnight (refs. 10,11; herein incorporated by reference in their entireties).
(§2) Following completion of the slow cooling, each of the PA solutions was mixed with Schwann cell suspension in a 4:1 ratio. A final cell density of 3500 cells/ml was used for the WST-1 proliferation assays and 10,000 cells/ml for immunocytochemistry studies.
(§3) A […] volume of gelling solution consisting of 20 mM CaCl2, 150 mM NaCl, and 3 mM KCl was pipetted onto a glass slide to form a thin film. The PA-Schwann cell suspensions were then pipetted in […] aliquots onto the thin film, instantly forming a string-like gel, with cells encapsulated within. These cell-embedded gels were maintained free floating in DMEM with 10% FBS in culture plates and incubated at 37° C. Medium was changed every 72 h.
(§4) Volumetric ratios of 1 ml HEPES, 10 ml 10XPBS, 87 ml Collagen 10 mg/mL, and 2 ml Schwann cell PBS suspension were combined and mixed gently. Final cell density of 3500 cells/ml was used for the WST-1 proliferation assays and 10,000 cells/ml, for immunocytochemistry studies. The mixture was then pipetted into a culture well (either a 96-well plate or 2-welled microscopy slides), and after 1 h of curing and solidification at 37° C., medium was added gently to the wells and changed every 3 days.
To evaluate the viability of cells within the gels, WST-1 reagent (Roche Applied Science, Indianapolis, Ind., USA) was used for each PA-cell and collagen gelecell complex. WST-1 assay has been widely used to measure cell proliferation. Aligned PA-cell gels along with collagen-cell gels were fabricated through the aforementioned methods at a final cell density of 3500 cells/ml. Gels were then cultured in 96-well plates for various time periods (days 1, 7, 14, and 21). Following each time point, gels were incubated for 90 min in medium containing 10% WST-1 assay reagent. Following incubation, […] of the conditioned medium were then transferred to a 96-well reading plate, and absorption values were read in a spectrophotometer at 450 nm. Measurements were repeated in sets of four.
For orientation: Tetrazolium dyes change colour on reduction, which living cells bring about.

Experiment [2] shares this test system. Nature of the experiment: Immunocytochemistry of actin and vinculin (focal adhesion protein) of Schwann cells in gels. It counts as cell-based, rat. As to conditions: 48 h culture. The protocol:
as §1, §2, §3, §4
PA-cell gels along with collagen-cell gels were fabricated through the aforementioned methods at a final cell density of 10,000 cells/ml. […] Specimens were then viewed with confocal microscopy (Confocal SP1 MP-Inverted, Leica Microsystems Inc., Buffalo Grove, Ill.) using oil magnification, and images were recorded.

The star is where a group is joined. Palmitoyl = CCCCCCCCCCCCCCCC(=O)*

With “RGDS-PA: palmitoyl-VVAAEE-NH2 with appended RGDS (Arg-Gly-Asp-Ser), mixed with backbone-PA: 1 wt % PA and 0.25 wt % bioactive epitope”, in experiment [1], the “Schwann cell proliferation compared to backbone-PA gel” value is “significantly higher” and the “Schwann cell proliferation (viability measurements) compared to backbone-PA gel” value is recorded as “proliferated more rapidly”. Besides, the “time over which Schwann cell proliferation was statistically increased vs. backbone-PA” value in experiment [1] (p<0.05, ANOVA and Tukey-Kramer) is at most 21 days. For the same substance, the “Schwann cell proliferation, rank among all groups” value in experiment [1] (through 21 days of culture) is given as “highest among all groups”. For the same substance, in experiment [2], the “actin appearance, RGDS-PA compared with IKVAV-PA gels” value is listed as “no significant difference”.
Regarding “palmitoyl-VVAAEENH2 (Palmitoyl-VVAAEE-NH2) [backbone-PA]”, the “Schwann cell proliferation with time in gel” value in experiment [1] (days 1, 7, 14, 21) is on record as “increasing proliferation with time”. Further, the “spatial arrangement of cytoskeletal actin of Schwann cells (actin stain)” value in experiment [2] is reported as “marked linear arrangement”.
Consider “IKVAV-PA: palmitoyl-VVAAEE-NH2 with appended IKVAV (Ile-Lys-Val-Ala-Val), mixed with backbone-PA: 1 wt % PA and 0.25 wt % bioactive epitope”, for which, in experiment [1], the “Schwann cell proliferation compared to backbone-PA gel” value is “significantly higher” and the “Schwann cell proliferation (viability measurements) compared to backbone-PA gel” value is given as “proliferated more rapidly”. Besides, the “day at which Schwann cell growth was maximal” value in experiment [1] (no significant expansion or contraction at day 21) turned out to be 14 days. In addition, the “actin appearance, RGDS-PA compared with IKVAV-PA gels” value in experiment [2] is on record as “no significant difference”.
